SMILES strings stand for the structures. Like-named read-outs stand apart in the source and are kept apart here.

The target in this assay is T1, His-Tagged hOGA (human O-GlcNAcase) (Homo sapiens, UniProt O60502).
T1 sequence (O60502 1-916): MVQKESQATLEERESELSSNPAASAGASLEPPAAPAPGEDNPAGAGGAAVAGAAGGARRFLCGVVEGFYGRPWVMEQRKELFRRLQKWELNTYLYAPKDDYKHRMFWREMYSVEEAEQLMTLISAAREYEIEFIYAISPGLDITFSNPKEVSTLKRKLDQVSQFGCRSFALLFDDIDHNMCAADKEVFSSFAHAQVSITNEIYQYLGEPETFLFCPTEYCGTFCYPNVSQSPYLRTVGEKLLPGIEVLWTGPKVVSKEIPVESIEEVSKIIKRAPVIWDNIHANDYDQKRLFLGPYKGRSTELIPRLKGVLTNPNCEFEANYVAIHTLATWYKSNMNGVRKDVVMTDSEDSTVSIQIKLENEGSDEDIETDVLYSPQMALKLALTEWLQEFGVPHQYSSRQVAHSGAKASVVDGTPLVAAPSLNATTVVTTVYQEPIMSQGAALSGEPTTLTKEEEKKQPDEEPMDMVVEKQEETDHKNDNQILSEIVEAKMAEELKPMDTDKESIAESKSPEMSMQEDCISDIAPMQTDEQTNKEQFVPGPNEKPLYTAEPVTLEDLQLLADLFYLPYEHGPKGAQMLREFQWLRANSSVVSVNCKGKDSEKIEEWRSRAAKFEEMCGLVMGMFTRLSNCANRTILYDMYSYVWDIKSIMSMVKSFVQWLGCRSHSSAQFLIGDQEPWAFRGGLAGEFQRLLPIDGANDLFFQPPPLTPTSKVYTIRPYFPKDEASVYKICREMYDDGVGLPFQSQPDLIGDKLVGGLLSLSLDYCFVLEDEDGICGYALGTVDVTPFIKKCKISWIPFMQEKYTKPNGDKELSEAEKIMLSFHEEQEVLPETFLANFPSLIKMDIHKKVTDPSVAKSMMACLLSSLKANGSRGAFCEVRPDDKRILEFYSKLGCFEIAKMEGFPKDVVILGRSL
As to the kind of experiment: biochemical. Here is the method: Human O-GlcNAcase Enzyme Inhibition Assay
The following reaction components were added to a final volume of 10 μL in McIlvaine's Buffer (pH 6.5):
20 nM His-Tagged hOGA and 10 μM Fluoroscein mono-beta-D-(2-deoxy-2-N-acetyl) glucopyranoside (FL-GlcNAc; Marker Gene Technologies Inc, Part #M1485). […] The amount of fluorescence measured was plotted against the concentration of inhibitor to produce a sigmoidal dose response curve, from which an IC50 was calculated.

Setting [1] is: read-out: OGA enzyme inhibition (IC50).

The term IC50 denotes the midpoint of a concentration-inhibition curve. With `CCNC1=N[C@@H]2[C@@H](O)[C@H](O)[C@@H](Cn3cc(COC)nn3)O[C@@H]2S1` [compound 11, (3aR,5R,6S,7R,7aR)-2-(ethylamino)-5-{[4-(methoxymethyl)-1H-1,2,3-triazol-1-yl]methyl}-5,6,7,7a-tetrahydro-3aH-pyrano[3,2-d][1,3]thiazole-6,7-diol], the IC50 under setting [1] was in the range of 100 to 500 nM.

Take `CCNC1=N[C@@H]2[C@@H](O)[C@H](O)[C@@H](C(O)Cc3ccccc3)O[C@@H]2S1` (stereo partly drawn) [compound 52]: the IC50 was in the range of 100 to 500 nM.

`CCNC1=N[C@@H]2[C@@H](O)[C@H](O)[C@@H](Cn3cc(COc4ccccc4CNC)nn3)O[C@@H]2S1` [compound 83] gave an IC50 of 500 to 1000 nM.

As for `CCNC1=N[C@@H]2[C@@H](O)[C@H](O)[C@@H](Cn3cc(COc4ccccc4C(C)O)nn3)O[C@@H]2S1` (stereo partly drawn) [compound 85], the IC50 lay within 100 to 500 nM.

`CCNC1=N[C@@H]2[C@@H](O)[C@H](O)[C@@H](Cn3cc(Cn4c(C(F)(F)F)nc5ccccc54)nn3)O[C@@H]2S1` [compound 95] displayed an IC50 of less than 100 nM.

`CCNC1=N[C@@H]2[C@@H](O)[C@H](O)[C@@H](Cn3cc(Cn4nc(C)nc4C)nn3)O[C@@H]2S1` [compound 96] showed a concentration for half-maximal inhibition (IC50) of less than 100 nM.

In turn, `CCNC1=N[C@@H]2[C@@H](O)[C@H](O)[C@@H](Cn3cc(Cn4ccnc4-c4cccs4)nn3)O[C@@H]2S1` [compound 97] returned an IC50 of less than 100 nM.

For `CCNC1=N[C@@H]2[C@@H](O)[C@H](O)[C@@H](Cn3cc(-c4cn(S(=O)(=O)c5ccccc5)c5ccccc45)nn3)O[C@@H]2S1` [compound 98], the IC50 is less than 100 nM.

For the compound `CCNC1=N[C@@H]2[C@@H](O)[C@H](O)[C@@H](Cn3cc(C4(c5ccccc5)CC4)nn3)O[C@@H]2S1` [compound 99], under setting [1], the IC50 is less than 100 nM.

`CCNC1=N[C@@H]2[C@@H](O)[C@H](O)[C@@H](Cn3cc(C4(c5ccccc5)CCCC4)nn3)O[C@@H]2S1` [compound 100]: the IC50 is 100 to 500 nM.

For `CCNC1=N[C@@H]2[C@@H](O)[C@H](O)[C@@H](Cn3cc(COc4cccc(N)c4)nn3)O[C@@H]2S1` [compound 101], the IC50 under setting [1] lay in the range of 100 to 500 nM.

Consider `CCNC1=N[C@@H]2[C@@H](O)[C@H](O)[C@@H](Cn3cc(COc4ccccc4CN)nn3)O[C@@H]2S1` [compound 102], for which the IC50 under setting [1] lay within 100 to 500 nM.

In turn, `CCNC1=N[C@@H]2[C@@H](O)[C@H](O)[C@@H](Cn3nnnc3C(=O)c3ccccc3)O[C@@H]2S1` [compound 105] returned an IC50 of more than 1000 nM.

With `CCNC1=N[C@@H]2[C@@H](O)[C@H](O)[C@@H](COCc3ccccc3)O[C@@H]2S1` [compound no. 8, (3aR,5R,6S,7R,7aR)-5-[(benzyloxy)methyl]-2-(ethylamino)-5,6,7,7a-tetrahydro-3aH-pyrano[3,2-d][1,3]thiazole-6,7-diol], the IC50 under setting [1] was more than 1000 nM.

On to `CCNC1=N[C@@H]2[C@@H](O)[C@H](O)[C@@H](C(=O)O)O[C@@H]2S1` [compound no. 9, (3aR,5S,6S,7R,7aR)-2-(ethylamino)-6,7-dihydroxy-5,6,7,7a-tetrahydro-3aH-pyrano[3,2-d]thiazole-5-carboxylic acid], for which the IC50 under setting [1] is more than 1000 nM.

`CCNC1=N[C@@H]2[C@@H](OC)[C@H](OC)[C@@H](COC)O[C@@H]2S1` [compound no. 13, (3aR,5R,6S,7R,7aR)—N-ethyl-6,7-dimethoxy-5-(methoxymethyl)-5,6,7,7a-tetrahydro-3aH-pyrano[3,2-d][1,3]thiazol-2-amine]: the IC50 was more than 1000 nM.

`CCNC1=N[C@@H]2[C@@H](OC)[C@H](O)[C@@H](CO)O[C@@H]2S1` [compound no. 15, (3aR,5R,6S,7R,7aR)-2-(ethylamino)-5-(hydroxymethyl)-7-methoxy-5,6,7,7a-tetrahydro-3aH-pyrano[3,2-d][1,3]thiazol-6-ol] yielded an IC50 of more than 1000 nM.

Compound `CCN(C(=O)OC(C)(C)C)C1=N[C@@H]2[C@@H](O)[C@H](O)[C@@H](COCc3ccccc3)O[C@@H]2S1` [compound no. 16, Tert-butyl {(3aR,5R,6S,7R,7aR)-5-[(benzyloxy)methyl]-6,7-dihydroxy-5,6,7,7a-tetrahydro-3aH-pyrano[3,2-d][1,3]thiazol-2-yl}ethylcarbamate] yielded an IC50 of more than 1000 nM.

`CCNC1=N[C@@H]2[C@@H](O)[C@H](O)[C@@H](C(=O)NCCc3ccc(-c4ccccc4)cc3)O[C@@H]2S1` [compound no. 23, (3aR,5S,6S,7R,7aR)—N-(2-biphenyl-4-ylethyl)-2-(ethylamino)-6,7-dihydroxy-5,6,7,7a-tetrahydro-3aH-pyrano[3,2-d][1,3]thiazole-5-carboxamide] returned an IC50 of more than 1000 nM.

In turn, `CCNC1=N[C@@H]2[C@@H](O)[C@H](O)[C@@H](C(=O)N(C)C)O[C@@H]2S1` [compound no. 28, (3aR,5S,6S,7R,7aR)-2-(ethylamino)-6,7-dihydroxy-N,N-dimethyl-5,6,7,7a-tetrahydro-3aH-pyrano[3,2-d][1,3]thiazole-5-carboxamide] returned an IC50 of more than 1000 nM.

`CCNC1=N[C@@H]2[C@@H](O)[C@H](O)[C@@H](C(=O)Nc3ccccc3)O[C@@H]2S1` [compound no. 31, (3aR,5S,6S,7R,7aR)-2-(ethylamino)-6,7-dihydroxy-N-phenyl-5,6,7,7a-tetrahydro-3aH-pyrano[3,2-d][1,3]thiazole-5-carboxamide] came in with an IC50 of more than 1000 nM.

On to `CCNC1=N[C@@H]2[C@@H](O)[C@H](O)[C@@H](C(=O)NCCc3ccc(Oc4ccccc4)cc3)O[C@@H]2S1` [compound no. 33, (3aR,5S,6S,7R,7aR)-2-(ethylamino)-6,7-dihydroxy-N-[2-(4-phenoxyphenyl)ethyl]-5,6,7,7a-tetrahydro-3aH-pyrano[3,2-d][1,3]thiazole-5-carboxamide], for which the IC50 was more than 1000 nM.

Take `CCN(C)C1=N[C@@H]2[C@@H](O)[C@H](O)[C@@H](C(=O)O)O[C@@H]2S1` [compound no. 36, (3aR,5S,6S,7R,7aR)-2-[ethyl(methyl)amino]-6,7-dihydroxy-5,6,7,7a-tetrahydro-3aH-pyrano[3,2-d][1,3]thiazole-5-carboxylic acid]: the IC50 under setting [1] was more than 1000 nM.

In the case of `CCNC1=N[C@@H]2[C@@H](O)[C@H](O)[C@@H](C(=O)OC)O[C@@H]2S1` [compound no. 42, Methyl-(3aR,5S,6S,7R,7aR)-2-(ethylamino)-6,7-dihydroxy-5,6,7,7a-tetrahydro-3aH-pyrano[3,2-d][1,3]thiazole-5-carboxylate], under setting [1], the IC50 is more than 1000 nM.

As for `CCNC1=N[C@@H]2[C@@H](O)[C@H](O)[C@@H](C(=O)N(C)OC)O[C@@H]2S1` [compound no. 45, (3aR,5S,6S,7R,7aR)-2-(ethylamino)-6,7-dihydroxy-N-methoxy-N-methyl-5,6,7,7a-tetrahydro-3aH-pyrano[3,2-d][1,3]thiazole-5-carboxamide], under setting [1], the IC50 is more than 1000 nM.

With `CCNC1=N[C@@H]2[C@@H](O)[C@H](O)[C@@H](C=O)O[C@@H]2S1` [compound no. 47, (3aR,5S,6S,7R,7aR)-2-(ethylamino)-6,7-dihydroxy-5,6,7,7a-tetrahydro-3aH-pyrano[3,2-d][1,3]thiazole-5-carbaldehyde], the IC50 was less than 100 nM.

`CCNC1=N[C@@H]2[C@@H](O)[C@H](O)[C@@H](CNCc3ccccc3)O[C@@H]2S1` [compound no. 48, (3aR,5R,6S,7R,7aR)-5-[(benzylamino)methyl]-2-(ethylamino)-5,6,7,7a-tetrahydro-3aH-pyrano[3,2-d][1,3]thiazole-6,7-diol]: the IC50 under setting [1] lay within 500 to 1000 nM.

As to `CCN(C(=O)OC)C1=N[C@@H]2[C@@H](O)[C@H](O)[C@@H](CO)O[C@@H]2S1` [compound no. 49, Methyl-[(3aR,5R,6S,7R,7aR)-6,7-dihydroxy-5-(hydroxymethyl)-5,6,7,7a-tetrahydro-3aH-pyrano[3,2-d][1,3]thiazol-2-yl]ethylcarbamate], the IC50 is less than 100 nM.

On to `CCNC1=N[C@@H]2[C@@H](O)[C@H](O)[C@@H]([C@H](O)CCc3ccccc3)O[C@@H]2S1` [compound no. 54, (3aR,5R,6S,7R,7aR)-2-Ethylamino-5-((R)-1-hydroxy-3-phenyl-propyl)-5,6,7,7a-tetrahydro-3aH-pyrano[3,2-d]thiazole-6,7-diol], for which the IC50 under setting [1] was more than 1000 nM.

The compound `CCNC1=N[C@@H]2[C@@H](O)[C@H](O)[C@@H]([C@H](O)CCCc3ccccc3)O[C@@H]2S1` [compound no. 55, (3aR,5R,6S,7R,7aR)-2-(ethylamino)-5-((R)1-hydroxy-4-phenylbutyl)-5,6,7,7a-tetrahydro-3aH-pyrano[3,2-d][1,3]thiazole-6,7-diol] registered an IC50 of more than 1000 nM.

These data come from US8884023B2, “Pyrano [3,2-D][1,3]thiazole as glycosidase inhibitors” (priority 2011, dated 2014).
